Reference: patent publication US20250179057A1, “MEK IMMUNE ONCOLOGY INHIBITORS AND THERAPEUTIC USES THEREOF” (Immuneering Corporation, priority 2022, published 2025)
In brackets after ≈: the same amount, converted by molar mass. Where a name gives a salt, the structure may show the parent alone. Read-outs that look alike come from different tables or passages of the source.

Experiments:
[1] = target: T1, CYP2C8 (Homo sapiens, UniProt P10632); assay: CYP450 panel inhibition in human liver microsomes, 2C8 (amodiaquine); details: 10 μM, substrate amodiaquine
T1 sequence (P10632 1-490): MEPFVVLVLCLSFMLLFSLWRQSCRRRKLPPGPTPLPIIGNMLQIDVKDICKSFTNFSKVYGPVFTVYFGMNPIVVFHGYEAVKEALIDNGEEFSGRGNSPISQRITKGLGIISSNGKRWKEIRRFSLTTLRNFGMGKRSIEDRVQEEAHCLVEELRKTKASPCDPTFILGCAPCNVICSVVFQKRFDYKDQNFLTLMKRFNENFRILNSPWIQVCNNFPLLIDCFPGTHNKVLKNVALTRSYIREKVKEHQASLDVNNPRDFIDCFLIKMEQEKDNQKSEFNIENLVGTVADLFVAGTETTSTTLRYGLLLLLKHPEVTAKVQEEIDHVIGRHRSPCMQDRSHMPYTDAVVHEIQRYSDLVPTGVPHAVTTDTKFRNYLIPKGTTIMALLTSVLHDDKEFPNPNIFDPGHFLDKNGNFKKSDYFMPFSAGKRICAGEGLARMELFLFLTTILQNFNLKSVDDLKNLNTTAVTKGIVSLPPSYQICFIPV

[2] = target: T2, CYP2B6 (Homo sapiens, UniProt P20813); assay: CYP450 panel inhibition in human liver microsomes, 2B6 (bupropion); details: 10 μM, substrate bupropion
T2 sequence (P20813 1-491): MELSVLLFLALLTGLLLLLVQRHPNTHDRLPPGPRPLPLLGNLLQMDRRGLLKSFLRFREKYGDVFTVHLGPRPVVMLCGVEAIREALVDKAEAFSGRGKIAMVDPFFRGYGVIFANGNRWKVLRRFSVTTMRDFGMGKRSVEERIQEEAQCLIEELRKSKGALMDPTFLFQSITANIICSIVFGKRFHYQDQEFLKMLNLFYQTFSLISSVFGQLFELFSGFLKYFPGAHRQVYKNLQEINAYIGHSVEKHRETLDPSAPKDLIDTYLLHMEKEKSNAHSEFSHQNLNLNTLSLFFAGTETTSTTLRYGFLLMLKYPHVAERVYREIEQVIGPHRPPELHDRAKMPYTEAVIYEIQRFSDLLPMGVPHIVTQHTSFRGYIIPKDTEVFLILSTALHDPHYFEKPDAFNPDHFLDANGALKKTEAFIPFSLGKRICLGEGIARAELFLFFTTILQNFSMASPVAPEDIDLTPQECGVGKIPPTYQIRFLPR

[3] = tested on: phospho-ERK in A375 cells; assay: Cell-based pERK (pERK:tERK) in A375 cells; details: for pERK/tERK ratio normalized to DMSO: A375 (BRAF p.V600E), 100 nM
Protocol: Materials and Methods: A549 or A375 cells were seeded in 6-well plates at an appropriate seeding density on day 0. On day 2 or 3, after checking the health and confluency of cells, the media was aspirated and replaced with 1 mL media containing a predetermined concentration of compound and incubated for 2 hours. After 2 hours, the media was aspirated, and the cells washed 2 times with cold PBS. Cells were lysed on ice, with 50 uL 1×CST lysis buffer +1 mM PMSF for 5 minutes. After 5 minutes, cells were removed using a scraper and transferred to cold 1.5 mL tubes, and centrifuged for 10 min, 4° C., 14,000×g. Supernatant was gently removed and snap frozen in liquid nitrogen. Protein concentration of the lysate was determined using Bradford Reagent (analyzed using SpectraMax M2E) and diluted to 1 mg/mL or pERK or 1.5 mg/mL for pMEK analysis. […] All dilutions were in Milk-free antibody diluent.
A549 or […] cells were treated in duplicate for two hours with compounds at varying concentrations. After two hours, the cells were lysed, snap frozen, and stored at −80° C. After storage, the lysate was quantified with the Bradford assay. Before the lysates were prepared to run on the Jess, the lysates were diluted to 1 mg/mL for pERK analysis and 1.5 mg/mL pMEK analysis using quantitative Western blotting. ERK and MEK phosphorylation levels were estimated by taking the ratio of phospho-protein to total protein and normalizing to the DMSO control.
The nine models are described in Table 16.

[4] = eLogD (lipophilicity; pH 7.4) by HPLC; assay type: physicochemical
Protocol: Test compounds were dissolved in DMSO at a concentration of 10 mM and further diluted with methanol:water 1:1. Samples were analyzed using gradient HPLC with three different isocratic mobile phases of 0.25% octanol in methanol (60, 65 and 70%) and 20 mM MOPS buffer (pH 7.4) with decylamine. If needed, (for low E log Doct compounds) the isocratic mobile phases were adjusted to e.g. 40, 45 and 50% methanol. Peaks were detected using a diode array at absorbance 220-320 nm.
Capacity factors data (k′_=(tr−_t0)/t0) obtained at various amounts of methanol were extrapolated to 0% methanol and k′w values are determined using a linear procedure. E log Doct (7.4) is calculated using a series of reference standards with known Log D values. Each experiment was performed in triplicate.

[5] = Kinetic solubility (PBS pH 7.4; 4 hr); assay type: physicochemical
Protocol: The plates were shaken for 4 h at room temperature in an Eppendorf Thermomixer. After incubation, the plates were centrifuged for 20 minutes at 4680 rpm. From the supernatant, 150 μL was transferred to a new 96 well plate and 50 μL DMSO was added to ensure continued dissolution. Samples were measured on LC-UV at injection volumes of 1 and 8 μL. Peak areas were determined and compared to peak areas obtained using calibration curves of the test compounds in DMSO.

[6] = tested on: phospho-MEK in A549 cells; assay: Cell-based pMEK (pMEK:tMEK, CRAF bypass) in A549 cells; details: for A549-CRAF BP 100 nM, 2 h: pMEK to total MEK normalized to DMSO control
In short: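 Cells (A549 or A375) exposed 2 h to compounds at varying concentrations in duplicate, then lysed; lysates set to 1.5 mg/mL for pMEK by quantitative Western (Jess). Phospho-MEK/total MEK ratio normalized to DMSO control.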

[7] = Mouse liver microsome stability (t1/2, Clint); details: for half-life at 1 μM / microsomal CLint at 1 μM: mouse, liver microsomes, pH 7.4
[8] = Caco-2 bidirectional permeability (absorption & efflux); details: human
[9] = target: CYP2C19 (Homo sapiens, UniProt P33261); assay: in vitro; details: microsomes, pH 7.4
[10] = target: T2, CYP2B6; assay: in vitro; details: microsomes, pH 7.4
[11] = target: T1, CYP2C8; assay: in vitro; details: microsomes, pH 7.4
[12] = target: CYP2D6 (Homo sapiens, UniProt P10635); assay: in vitro; details: microsomes, pH 7.4
[13] = target: CYP3A4 (Homo sapiens, UniProt P08684); assay: in vitro; details: microsomes, pH 7.4
[14] = PBS buffer, pH 7.4, aqueous buffer, kinetic from dmso stock, free base (Table 19), read-out: Kinetic Solubility
[15] = free base (Table 19), read-out: Kinetic Solubility
[16] = 1 μM, 0.5 mg/ml microsomal protein

Sequence of CYP2C19 (P33261 whole entry): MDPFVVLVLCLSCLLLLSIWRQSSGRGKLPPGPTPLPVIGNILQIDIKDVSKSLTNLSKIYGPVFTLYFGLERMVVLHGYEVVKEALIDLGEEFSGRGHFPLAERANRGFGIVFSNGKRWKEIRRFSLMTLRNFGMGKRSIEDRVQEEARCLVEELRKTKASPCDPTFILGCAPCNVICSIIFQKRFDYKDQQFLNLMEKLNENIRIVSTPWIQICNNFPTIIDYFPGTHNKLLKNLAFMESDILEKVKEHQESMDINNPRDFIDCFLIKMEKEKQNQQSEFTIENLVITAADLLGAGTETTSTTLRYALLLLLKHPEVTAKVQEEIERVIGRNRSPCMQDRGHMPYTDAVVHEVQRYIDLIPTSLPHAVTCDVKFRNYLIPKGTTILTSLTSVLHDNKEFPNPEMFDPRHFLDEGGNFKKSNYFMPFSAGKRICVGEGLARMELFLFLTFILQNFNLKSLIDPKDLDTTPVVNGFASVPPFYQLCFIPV
Sequence of CYP2D6 (P10635 whole entry): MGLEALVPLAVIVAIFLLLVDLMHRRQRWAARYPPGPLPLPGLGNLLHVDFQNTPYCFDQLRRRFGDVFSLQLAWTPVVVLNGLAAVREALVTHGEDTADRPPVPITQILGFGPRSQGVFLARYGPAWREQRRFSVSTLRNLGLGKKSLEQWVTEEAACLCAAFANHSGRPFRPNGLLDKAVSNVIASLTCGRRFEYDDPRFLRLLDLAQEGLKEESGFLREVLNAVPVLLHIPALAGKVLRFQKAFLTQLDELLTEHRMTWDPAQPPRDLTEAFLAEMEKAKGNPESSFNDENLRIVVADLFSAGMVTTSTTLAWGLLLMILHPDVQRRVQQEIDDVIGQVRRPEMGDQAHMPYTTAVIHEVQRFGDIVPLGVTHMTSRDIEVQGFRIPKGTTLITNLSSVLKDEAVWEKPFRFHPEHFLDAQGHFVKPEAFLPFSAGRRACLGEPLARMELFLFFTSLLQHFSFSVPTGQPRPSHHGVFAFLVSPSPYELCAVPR
Sequence of CYP3A4 (P08684 whole entry): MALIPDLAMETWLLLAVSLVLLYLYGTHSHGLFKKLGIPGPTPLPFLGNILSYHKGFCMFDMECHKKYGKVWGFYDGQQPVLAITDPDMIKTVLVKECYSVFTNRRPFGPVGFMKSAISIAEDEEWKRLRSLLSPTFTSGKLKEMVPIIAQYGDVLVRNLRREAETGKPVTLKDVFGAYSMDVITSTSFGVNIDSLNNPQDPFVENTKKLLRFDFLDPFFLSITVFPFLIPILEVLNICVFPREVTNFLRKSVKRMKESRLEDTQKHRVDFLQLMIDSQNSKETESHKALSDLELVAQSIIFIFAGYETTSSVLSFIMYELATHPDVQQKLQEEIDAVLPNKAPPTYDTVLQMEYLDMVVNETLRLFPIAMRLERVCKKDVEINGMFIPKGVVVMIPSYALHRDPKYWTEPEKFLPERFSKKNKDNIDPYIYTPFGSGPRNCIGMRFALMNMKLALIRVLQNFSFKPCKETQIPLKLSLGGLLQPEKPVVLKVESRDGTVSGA

CCCS(=O)(=O)Nc1cccc(Cc2c(CN3CCNCC3)c3cc(Cl)c(OC(=O)N(C)C)cc3oc2=O)c1F [Compound 167]
CYP-2C8 (Amodiaquine) mean percentage CYP inhibition [1]: 61.8%
CYP-2B6 (Bupropion) mean percentage CYP inhibition [2]: 19.8%

CNS(=O)(=O)Nc1nccc(Cc2c(CN(C)C)c3ccc(OC(=O)N(C)C)cc3oc2=O)c1F [Compound 124]
CYP-2C8 (Amodiaquine) mean percentage CYP inhibition [1]: 59.0%
CYP-2B6 (Bupropion) mean percentage CYP inhibition [2]: 25.5%

Cn1cnc2c(F)c(Nc3ccc(Br)cc3Cl)c(C(=O)NOCCO)cc21 [Reference-1, Selumetinib]
A375 pERK:tERK ratio [10 nM; 2 hr] [3]: 0.59
pERK/tERK ratio normalized to DMSO [3]: 0.199
chromatographic logD [4]: 3.6
solubility kinetic at 4 h ([5]; PBS buffer, aqueous buffer, kinetic from dmso stock, PBS pH = 7.4, 4 hr (Table 7), read-out: Kinetic Solubility (PBS pH = 7.4; 4 hr)): 36 µM (≈ 16.5 µg/mL)
CRAF A549 pMEK:tMEK [100 nM; 2 hr] [6]: 2.09
half-life at 1 μM [7]: 18 min
microsomal CLint at 1 μM [7]: 78 µL/min/mg

CCN(C)Cc1c(Cc2cccc(NS(=O)(=O)NC)c2F)c(=O)oc2cc(OC(=O)N(C)C)c(F)cc12 [Compound 238]
Papp A→B at 2 h, 10 μM [8]: 14.2 ×10⁻⁶ cm/s
Papp B→A at 2 h, 10 μM [8]: 13.5 ×10⁻⁶ cm/s
efflux ratio at 2 h, 10 μM [8]: 0.956
solubility kinetic at 4 h [5, 14]: 40 µM (≈ 21.5 µg/mL)

CCN(C)Cc1c(Cc2cccc(NS(=O)(=O)NC)c2Cl)c(=O)oc2cc(OC(=O)N(C)C)ccc12 [Compound 245, 3-(2-chloro-3-((N-methylsulfamoyl)amino)benzyl)-4-((ethyl(methyl)amino)methyl)-2-oxo-2H-chromen-7-yl dimethylcarbamate]
Papp A→B at 2 h, 10 μM [8]: 11.9 ×10⁻⁶ cm/s
Papp B→A at 2 h, 10 μM [8]: 6.87 ×10⁻⁶ cm/s
efflux ratio at 2 h, 10 μM [8]: 0.578
inhibition at 30 min, 10 µM [9]: 29%
solubility kinetic at 4 h [5, 14]: 28 µM (≈ 15 µg/mL)
inhibition at 30 min, 10 µM [10]: 6%
inhibition at 30 min, 10 µM [11]: 30.4%
inhibition at 30 min, 10 µM [12]: 13.7%

CNS(=O)(=O)Nc1nccc(Cc2c(C)c3ccc(Oc4ncccn4)cc3oc2=O)c1F [Reference-2, reference compound]
chromatographic logD [4]: 3.6
CRAF A549 pMEK:tMEK [100 nM; 2 hr] [6]: 2.09
half-life at 1 μM [7]: 18 min
microsomal CLint at 1 μM [7]: 78 µL/min/mg

CNS(=O)(=O)Nc1cccc(Cc2c(CN(C)C)c3cc(F)c(OC(=O)N(C)C)cc3oc2=O)c1F [Compound 25]
CYP-2C8 (Amodiaquine) mean percentage CYP inhibition [1]: 77.2%
solubility kinetic at 4 h [5, 15]: >80 µM
A549-CRAF BP 100 nM, 2 h [6]: 71
CYP-2B6 (Bupropion) mean percentage CYP inhibition [2]: 16.0%

CNS(=O)(=O)Nc1cccc(Cc2c(CN3CCNCC3)c3ccc(OC(=O)N(C)C)cc3oc2=O)c1Cl [Compound 246, 3-(2-chloro-3-((N-methylsulfamoyl)amino)benzyl)-2-oxo-4-(piperazin-1-ylmethyl)-2H-chromen-7-yl dimethylcarbamate hydrochloride]
Papp A→B at 2 h, 10 μM [8]: 4.16 ×10⁻⁶ cm/s
Papp B→A at 2 h, 10 μM [8]: 6.99 ×10⁻⁶ cm/s
efflux ratio at 2 h, 10 μM [8]: 1.68
inhibition at 30 min, 10 µM [9]: 22%
inhibition at 30 min, 10 µM [13]: 16.2%
inhibition at 30 min, 10 µM [10]: 29.7%
inhibition at 30 min, 10 µM [11]: 10.5%
inhibition at 30 min, 10 µM [12]: 5.1%

CNS(=O)(=O)Nc1cccc(Cc2c(CN(C)C)c3ccc(OC(=O)N(C)C)cc3oc2=O)c1F [Compound 9]
CYP-2C8 (Amodiaquine) mean percentage CYP inhibition [1]: 15.5%
A375 pERK:tERK ratio [10 nM; 2 hr] [3]: 0.71
eLogD (lipophilicity; pH = 7.4) [4]: 3.0
Kinetic Solubility (PBS pH = 7.4; 4 hr) ([5]; PBS pH = 7.4, 4 hr (Table 8)): >80 uM
solubility kinetic at 4 h [5, 15]: >80 µM
A549-CRAF BP 100 nM, 2 h [6]: 44.9 (mean, n = 8)
CRAF A549 pMEK:tMEK [100 nM; 2 hr] [6]: 0.47
Mouse Clint [7, 16]: 32 µL/min/mg
Mouse Microsome (t1/2 min) [7, 16]: 44 min
CYP-2B6 (Bupropion) mean percentage CYP inhibition [2]: −2.5%

CCS(=O)(=O)Nc1cccc(Cc2c(CN(C)C)c3ccc(OC(=O)N(C)C)cc3oc2=O)c1F [Compound 120]
CYP-2C8 (Amodiaquine) mean percentage CYP inhibition [1]: 21.9%
solubility kinetic at 4 h [5, 15]: >80 µM
CYP-2B6 (Bupropion) mean percentage CYP inhibition [2]: 13.4%

CNS(=O)(=O)Nc1cccc(Cc2c(CN(C)C)c3ccc(OC(=O)N(C)C)cc3oc2=O)c1Cl [Compound 274, 3-(2-chloro-3-((N-methylsulfamoyl)amino)benzyl)-4-((dimethylamino)methyl)-2-oxo-2H-chromen-7-yl dimethylcarbamate]
Papp A→B at 2 h, 10 μM [8]: 16.8 ×10⁻⁶ cm/s
Papp B→A at 2 h, 10 μM [8]: 8.95 ×10⁻⁶ cm/s
efflux ratio at 2 h, 10 μM [8]: 0.533
inhibition at 30 min, 10 µM [9]: 15.1%
pERK/tERK ratio normalized to DMSO [3]: 0.477
solubility kinetic at 4 h [5, 14]: 78 µM (≈ 40.8 µg/mL)
inhibition at 30 min, 10 µM [10]: -0.6%
inhibition at 30 min, 10 µM [11]: 11.9%
inhibition at 30 min, 10 µM [12]: 2.5%

CNS(=O)(=O)Nc1cccc(Cc2c(CN3CCNCC3)c3cc(F)c(OC(=O)N(C)C)cc3oc2=O)c1F [Compound 134]
CYP-2C8 (Amodiaquine) mean percentage CYP inhibition [1]: 78.8%
A549-CRAF BP 100 nM, 2 h [6]: 26.9
CYP-2B6 (Bupropion) mean percentage CYP inhibition [2]: 10.3%
